Columns and labels:
OAT2h mutant E441Q = biological target: T1, OAT2h mutant E441Q (Homo sapiens, UniProt Q9Y694, E443Q); assay: uptake by OAT2h mutant E441Q (eGFP chimera) in 293 cells; type: cell-based; conditions: 1 min, 37° C., 0.1 μmol/l radiolabeled solute
T1 construct: expressed in transfected cells; host or cells: 293 cells (HEK-293), doxycycline-inducible
T1 sequence (Q9Y694 1-546 isoform Q9Y694-2 E441Q): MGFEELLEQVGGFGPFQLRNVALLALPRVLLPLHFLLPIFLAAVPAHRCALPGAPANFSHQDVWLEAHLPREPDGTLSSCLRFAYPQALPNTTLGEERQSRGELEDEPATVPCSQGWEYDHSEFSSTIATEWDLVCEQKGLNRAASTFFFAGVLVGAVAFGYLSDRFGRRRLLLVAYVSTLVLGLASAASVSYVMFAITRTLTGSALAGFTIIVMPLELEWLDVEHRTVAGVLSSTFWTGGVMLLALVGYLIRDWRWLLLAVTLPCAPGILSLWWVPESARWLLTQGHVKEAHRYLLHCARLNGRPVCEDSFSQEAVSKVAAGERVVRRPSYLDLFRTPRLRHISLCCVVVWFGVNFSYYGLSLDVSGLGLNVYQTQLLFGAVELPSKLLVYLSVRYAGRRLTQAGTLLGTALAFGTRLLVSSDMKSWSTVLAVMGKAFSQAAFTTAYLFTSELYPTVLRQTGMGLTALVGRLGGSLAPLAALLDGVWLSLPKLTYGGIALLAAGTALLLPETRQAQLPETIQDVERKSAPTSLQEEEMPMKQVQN
Procedure: 293 cells transfected for expression of eGFP chimera of OAT2h wild-type or OAT2hE441Q in dishes were incubated (1 min, 37° C.) with 0.1 μmol/l radiolabeled solute in uptake buffer, washed, and lysed. Cell lysates were analyzed by liquid scintillation counting.
In transmembrane segment 10, the OAT2 orthologues from human, horse, pig, cattle, rabbit, rat, mouse, opossum, and chicken uniformly contain a glutamate (E441 in OAT2h) that is absent in the related carriers OAT1, OAT3, and SLC22A13. Since in other SLC22 family members transmembrane segment 10 is involved in substrate discrimination (Bacher et al. Biochim Biophys Acta 2009; 1788:2594-2602.), the negative charge of the glutamate side chain could specifically attract the ammonium residue of the glutamate substrate. To test this hypothesis, a mutant of OAT2h was created with glutamine at position 441 (E441 Q); eGFP was attached to the C-terminus to verify unaltered membrane trafficking (FIG. 23). […] It follows that E441 is essential for transport of glutamate. […]

OAT2h splice variant = OAT2h splice variant (Homo sapiens, UniProt Q9Y694); conditions: 24 h incubation, 100 μmol/l in uptake buffer
Procedure: A substrate search by LC-MS difference shading was performed with 293 cells stably transfected to express OAT2 from rat. […] To verify that trigonelline is directly transported by OAT2 and not just increased indirectly, initial rates of uptake (1 min, 37° C.) of trigonelline (10 μmol/l) were determined by LC-MS/MS.
After centrifugation (1 min, 16000×g, 20° C.) of thawed lysates, 100 μl of the supernatant was mixed with either 10 μl unlabeled MPP+ iodide (0.5 ng/μl) or biphenyl-4-carboxylic acid (Sigma-Aldrich) as internal standard. Of this mixture, […] were analyzed by LCMS/MS on a triple quadrupole mass spectrometer (4000 Q TRAP, Applied Biosystems, Darmstadt, Germany). […] For quantification (scan time 150 ms), the optimal collision energy for argon-induced fragmentation in the second quadrupole was determined for each analyte. […] Sample analyte content was calculated from the analyte response ratio and the slope of the calibration curve, obtained by linear regression. With LC-MS quantitation, solute content of cell lysates was determined for 4 conditions (paired dishes, incubation time 1 min): a) transporter expression on, uptake buffer; b) expression off, uptake buffer; c) expression on, substrate in uptake buffer; d) expression off, substrate in uptake buffer. Acute uptake mediated by heterologously expressed carrier was then calculated as (c−a)−(d−b). […]

| SMILES | uptake with mutant E441Q versus wild-type (in words) (OAT2h mutant E441Q) | increase in cell lysates versus control cells (factor f) (OAT2h splice variant) |
| --- | --- | --- |
| N[C@@H](CCC(=O)O)C(=O)O [glutamate] | completely abolished | – |
| O=C(O)c1cc(=O)[nH]c(=O)[nH]1 [orotic acid] | much reduced, but still evident | – |
| C[n+]1cccc(C(=O)[O-])c1 [trigonelline] | – | 3.9 |
